In patent US20250179073A1, “TRICYCLIC HETEROCYCLE COMPOUNDS AS IAP ANTAGONISTS” (Ascentage Pharma (Suzhou) Co., Ltd., priority 2022, published 2025) one finds IC50 data, which are given here for 18 compounds.

pIC50: −log10 of the molar value.

For orientation: pIC50 means the negative decadic logarithm of the IC50, by convention in mol/L.

For assay [1], the system named is EVSA-T cells. In words: Cell proliferation assay (CellTiter-Glo), EVSA-T. It counts as cell-based. The note with it: Homo sapiens, EVSA-T, 72 h, 72 h treatment, Celltiter-Glo luminescence. Summed up: (§1)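 MDA-MB-231 (RPMI-1640/10% FBS) and EVSA-T (MEM/10% FBS) cells, 10000 cells/well, exposed 72 h to compound at […]. Viability read by CellTiter-Glo luminescence after 15 min at room temperature. IC50 from control-normalised curve fitting.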
For orientation: In ATP-based viability assays light output follows the ATP content of the culture.

Assay [2] relates to MDA-MB-231 cells. In words: Cell proliferation assay (CellTiter-Glo), MDA-MB-231. The format is cell-based. The note with it: Homo sapiens, MDA-MB-231, 72 h, 72 h treatment, Celltiter-Glo luminescence. Summed up:
as §1

`C[C@@H]1CN(CC(=O)N2CC(C)(C)c3c2cc(Cc2ccc(F)cc2)c2nc(C(F)(F)F)cn32)[C@@H](CN2[C@@H](C)COC[C@@H]2C)CN1` [Compound 162, 2-((2R,5R)-2-(((3S,5S)-3,5-dimethylmorpholino)methyl)-5-methylpiperazin-1-yl)-1-(4-(4-fluorobenzyl)-8,8-dimethyl-2-(trifluoromethyl)-7,8-dihydro-6H-imidazo[1,2-a]pyrrolo[2,3-e]pyridin-6-yl)ethan-1-one]: the values for the negative-log IC50 (pIC50) in assay [1] and in assay [2] were 8.00 and 7.34, respectively.
On to `C[C@@H]1CN(CC(=O)N2CC(C)(C)c3c2cc(Cc2ccc(F)cc2)c2nc(C4CCOC4)nn32)[C@@H](CN2CCOC[C@H]2C)CN1` (stereo partly drawn) [Compound 163, 1-(4-(4-fluorobenzyl)-8,8-dimethyl-2-(tetrahydrofuran-3-yl)-7,8-dihydro-6H-pyrrolo[2,3-e][1,2,4]triazolo[1,5-a]pyridin-6-yl)-2-((2R,5R)-5-methyl-2-(((R)-3-methylmorpholino)methyl)piperazin-1-yl)ethan-1-one], for which the pIC50 in assay [1] was 8.70; in assay [2], 7.55.
The matching figures for `C[C@@H]1CN(CC(=O)N2CC(C)(C)c3c2cc(Cc2ccc(F)cc2)c2nc(C4CC4)nn32)[C@@H](CN2CCOC[C@H]2C)CN1` [Compound 165, 1-(2-cyclopropyl-4-(4-fluorobenzyl)-8,8-dimethyl-7,8-dihydro-6H-pyrrolo[2,3-e][1,2,4]triazolo[1,5-a]pyridin-6-yl)-2-((2R,5R)-5-methyl-2-(((R)-3-methylmorpholino)methyl)piperazin-1-yl)ethan-1-one]: 8.40 and 7.68.
As to `C[C@@H]1CN(CC(=O)N2CC(C)(C)c3c2cc(Cc2ccc(F)cc2)c2nc(C(F)(F)F)cn32)[C@@H](CN2CCOC[C@H]2CF)CN1` [Compound 167, 1-(4-(4-fluorobenzyl)-8,8-dimethyl-2-(trifluoromethyl)-7,8-dihydro-6H-imidazo[1,2-a]pyrrolo[2,3-e]pyridin-6-yl)-2-((2R,5R)-2-((3-(fluoromethyl)morpholino)methyl)-5-methylpiperazin-1-yl)ethan-1-one], the negative-log IC50 (pIC50) in assay [1] was 7.80; in assay [2], 6.92.
`C[C@@H]1CN(CC(=O)N2CC(C)(C)c3c2cc(Cc2ccc(F)cc2)c2nc(C(F)(F)F)cn32)[C@@H](CN2CCN(CC(F)(F)F)C[C@H]2C)CN1` [Compound 179, 1-(4-(4-fluorobenzyl)-8,8-dimethyl-2-(trifluoromethyl)-7,8-dihydro-6H-imidazo[1,2-a]pyrrolo[2,3-e]pyridin-6-yl)-2-((2R,5R)-5-methyl-2-(((R)-2-methyl-4-(2,2,2-trifluoroethyl)piperazin-1-yl)methyl)piperazin-1-yl)ethan-1-one]: the pIC50 is 7.82 in assay [1] and 6.74 in assay [2].
On the same counts, the results for `C[C@@H]1CN(CC(=O)N2CC3(CCOCC3)c3c2cc(Cc2ccc(F)cc2)c2ncnn32)[C@@H](CN2CCOC[C@H]2C)CN1` [Compound 180, 1-(4′-(4-fluorobenzyl)-2,3,5,6-tetrahydrospiro[pyran-4,8′-pyrrolo[2,3-e][1,2,4]triazolo[1,5-a]pyridin]-6′(7′H)-yl)-2-((2R,5R)-5-methyl-2-(((R)-3-methylmorpholino)methyl)piperazin-1-yl)ethan-1-one] are 7.25 and 6.21.
For the compound `C[C@@H]1CN(CC(=O)N2CC(C)(C)c3c2cc(Cc2ccc(F)cc2)c2nc(C(F)(F)F)cn32)[C@@H](CN2CCN(C3COC3)C[C@H]2C)CN1` [Compound 181, 1-(4-(4-fluorobenzyl)-8,8-dimethyl-2-(trifluoromethyl)-7,8-dihydro-6H-imidazo[1,2-a]pyrrolo[2,3-e]pyridin-6-yl)-2-((2R,5R)-5-methyl-2-(((R)-2-methyl-4-(oxetan-3-yl)piperazin-1-yl)methyl)piperazin-1-yl)ethan-1-one], the pIC50 in assay [1] is 7.82; in assay [2], 7.01.
In the case of `C[C@@H]1CN(CC(=O)N2CC(C)(C)c3c2cc(Cc2ccc(F)cc2)c2ncnn32)[C@@H](CN2CCN(CC#N)C[C@H]2C)CN1` [Compound 182, 2-((R)-4-(((2R,5R)-1-(2-(4-(4-fluorobenzyl)-8,8-dimethyl-7,8-dihydro-6H-pyrrolo[2,3-e][1,2,4]triazolo[1,5-a]pyridin-6-yl)-2-oxoethyl)-5-methylpiperazin-2-yl)methyl)-3-methylpiperazin-1-yl)acetonitrile], the results for the pIC50 in assay [1] and in assay [2] were 8.70 and 7.77, respectively.
The matching figures for `C[C@@H]1CN(CC(=O)N2CC(C)(C)c3c2cc(Cc2ccc(F)cc2)c2nc(-c4cncnc4)nn32)[C@@H](CN2CCOC[C@H]2C)CN1` [Compound 184, 1-(4-(4-fluorobenzyl)-8,8-dimethyl-2-(pyrimidin-5-yl)-7,8-dihydro-6H-pyrrolo[2,3-e][1,2,4]triazolo[1,5-a]pyridin-6-yl)-2-((2R,5R)-5-methyl-2-(((R)-3-methylmorpholino)methyl)piperazin-1-yl)ethan-1-one]: 8.22 and 7.77.
Consider `C[C@@H]1CN(CC(=O)N2CC(C)(C)c3c2cc(Cc2ccc(F)cc2)c2nn(CC#N)c(=O)n32)[C@@H](CN2CCOC[C@H]2C)CN1` [Compound 185, 2-(4-(4-fluorobenzyl)-8,8-dimethyl-6-(2-((2R,5R)-5-methyl-2-(((R)-3-methylmorpholino)methyl)piperazin-1-yl)acetyl)-1-oxo-7,8-dihydro-1H-pyrrolo[2,3-e][1,2,4]triazolo[4,3-a]pyridin-2(6H)-yl)acetonitrile], for which the negative-log IC50 (pIC50) is 8.15 in assay [1] and 7.64 in assay [2].
For the compound `C[C@@H]1CN(CC(=O)N2CC(C)(C)c3c2cc(Cc2ccc(F)cc2)c2nc(NC4COC4)nn32)[C@@H](CN2CCOC[C@H]2C)CN1` [Compound 187, 1-(4-(4-fluorobenzyl)-8,8-dimethyl-2-(oxetan-3-ylamino)-7,8-dihydro-6H-pyrrolo[2,3-e][1,2,4]triazolo[1,5-a]pyridin-6-yl)-2-((2R,5R)-5-methyl-2-(((R)-3-methylmorpholino)methyl)piperazin-1-yl)ethan-1-one], the pIC50 in assay [1] was 8.22; in assay [2], 8.10.
Regarding `C[C@@H]1CN(CC(=O)N2CC(C)(C)c3c2cc(Cc2ccc(F)cc2)c2nc(N4CC5CC(C4)O5)nn32)[C@@H](CN2CCOC[C@H]2C)CN1` [Compound 189, 1-(2-(6-oxa-3-azabicyclo[3.1.1]heptan-3-yl)-4-(4-fluorobenzyl)-8,8-dimethyl-7,8-dihydro-6H-pyrrolo[2,3-e][1,2,4]triazolo[1,5-a]pyridin-6-yl)-2-((2R,5R)-5-methyl-2-(((R)-3-methylmorpholino)methyl)piperazin-1-yl)ethan-1-one], the pIC50 was 8.70 in assay [1] and 8.00 in assay [2].
The matching figures for `C[C@@H]1CN(CC(=O)N2CC(C)(C)c3c2cc(Cc2ccc(F)cc2)c2nn(C4CCOCC4)c(=O)n32)[C@@H](CN2CCOC[C@H]2C)CN1` [Compound 190, 4-(4-fluorobenzyl)-8,8-dimethyl-6-(2-((2R,5R)-5-methyl-2-(((R)-3-methylmorpholino)methyl)piperazin-1-yl)acetyl)-2-(tetrahydro-2H-pyran-4-yl)-2,6,7,8-tetrahydro-1H-pyrrolo[2,3-e][1,2,4]triazolo[4,3-a]pyridin-1-one]: 8.52 and 7.85.
The matching figures for `C[C@@H]1CN(CC(=O)N2CC(C)(C)c3c2cc(Cc2ccc(F)cc2)c2nn(Cc4ccccn4)c(=O)n32)[C@@H](CN2CCOC[C@H]2C)CN1` [Compound 192, 4-(4-fluorobenzyl)-8,8-dimethyl-6-(2-((2R,5R)-5-methyl-2-(((R)-3-methylmorpholino)methyl)piperazin-1-yl)acetyl)-2-(pyridin-2-ylmethyl)-2,6,7,8-tetrahydro-1H-pyrrolo[2,3-e][1,2,4]triazolo[4,3-a]pyridin-1-one]: 8.15 and 7.42.
Take `C[C@@H]1CN(CC(=O)N2CC(C)(C)c3c2cc(Cc2ccc(F)cc2)c2nn(Cc4cnccn4)c(=O)n32)[C@@H](CN2CCOC[C@H]2C)CN1` [Compound 193, 4-(4-fluorobenzyl)-8,8-dimethyl-6-(2-((2R,5R)-5-methyl-2-(((R)-3-methylmorpholino)methyl)piperazin-1-yl)acetyl)-2-(pyrazin-2-ylmethyl)-2,6,7,8-tetrahydro-1H-pyrrolo[2,3-e][1,2,4]triazolo[4,3-a]pyridin-1-one]: the negative-log IC50 (pIC50) in assay [1] was 8.22; in assay [2], 7.30.
The matching figures for `C[C@@H]1CN(CC(=O)N2CC(C)(C)c3c2cc(Cc2ccc(F)cc2)c2nc(CC#N)nn32)[C@@H](CN2CCOC[C@H]2C)CN1` [Compound 196, 2-(4-(4-fluorobenzyl)-8,8-dimethyl-6-(2-((2R,5R)-5-methyl-2-(((R)-3-methylmorpholino)methyl)piperazin-1-yl)acetyl)-7,8-dihydro-6H-pyrrolo[2,3-e][1,2,4]triazolo[1,5-a]pyridin-2-yl)acetonitrile]: 8.40 and 7.37.
On the same counts, the results for `C[C@@H]1CN(CC(=O)N2CC(C)(C)c3c2cc(Cc2ccc(F)cc2)c2nc(N4CCS(=O)(=O)CC4)nn32)[C@@H](CN2CCOC[C@H]2C)CN1` [Compound 199, 1-(2-(1,1-dioxidothiomorpholino)-4-(4-fluorobenzyl)-8,8-dimethyl-7,8-dihydro-6H-pyrrolo[2,3-e][1,2,4]triazolo[1,5-a]pyridin-6-yl)-2-((2R,5R)-5-methyl-2-(((R)-3-methylmorpholino)methyl)piperazin-1-yl)ethan-1-one] are 8.22 and 7.70.
The matching figures for `C[C@@H]1CN(CC(=O)N2CC(C)(C)c3c2cc(Cc2ccc(F)cc2)c2nn(CCO)c(=O)n32)[C@@H](CN2CCOC[C@H]2C)CN1` [Compound 201, 4-(4-fluorobenzyl)-2-(2-hydroxyethyl)-8,8-dimethyl-6-(2-((2R,5R)-5-methyl-2-(((R)-3-methylmorpholino)methyl)piperazin-1-yl)acetyl)-2,6,7,8-tetrahydro-1H-pyrrolo[2,3-e][1,2,4]triazolo[4,3-a]pyridin-1-one]: 7.96 and 7.59.
